# Measurements taken from ChEMBL document CHEMBL1201861, “Genomics of Drug Sensitity in Cancer screening data, Wellcome Trust Sanger Institute”.
# Experiments:
# Test in all cases: cells
# CW-2 = type: functional, cell-based, Homo sapiens; settings: Homo sapiens, CW-2;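 note: growth inhibition of CW-2 cells, read out by a cell viability assay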
# Description: SANGER: Inhibition of human CW-2 cell growth in a cell viability assay.
# DEL = type: functional, cell-based, Homo sapiens; settings: Homo sapiens, DEL;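 note: growth inhibition of the human DEL cell line, read out with a cell viability assay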
# Description: SANGER: Inhibition of human DEL cell growth in a cell viability assay.
# DMS-114 = type: functional, cell-based, Homo sapiens; settings: Homo sapiens, DMS-114
# DSH1 = type: functional, cell-based, Homo sapiens; settings: Homo sapiens, DSH1;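 note: growth inhibition of human DSH1 cells, measured with a cell viability readout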
# Description: SANGER: Inhibition of human DSH1 cell growth in a cell viability assay.
# DU-4475 = type: functional, cell-based, Homo sapiens; settings: Homo sapiens, DU-4475
# Description: SANGER: Inhibition of human DU-4475 cell growth in a cell viability assay.
# EW-1 = type: functional, cell-based, Homo sapiens; settings: Homo sapiens, EW-1
# Description: SANGER: Inhibition of human EW-1 cell growth in a cell viability assay.
# EW-13 = type: functional, cell-based, Homo sapiens; settings: Homo sapiens, EW-13;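 note: growth inhibition of EW-13 cells, read out with a cell viability assay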
# Description: SANGER: Inhibition of human EW-13 cell growth in a cell viability assay.
# GB-1 = type: functional, cell-based, Homo sapiens; settings: Homo sapiens, GB-1;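 note: growth of GB-1 cells judged by a viability assay, IC50 marks the concentration inhibiting growth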
# Description: SANGER: Inhibition of human GB-1 cell growth in a cell viability assay.
# GCIY = type: functional, cell-based, Homo sapiens; settings: Homo sapiens, GCIY;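 note: growth inhibition of the human GCIY cell line, read out by a cell viability assay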
# Description: SANGER: Inhibition of human GCIY cell growth in a cell viability assay.
# GI-1 = type: functional, cell-based, Homo sapiens; settings: Homo sapiens, GI-1;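 note: growth inhibition of human GI-1 cells, measured with a cell viability readout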
# Description: SANGER: Inhibition of human GI-1 cell growth in a cell viability assay.
# GOTO = type: functional, cell-based, Homo sapiens; settings: Homo sapiens, GOTO;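 note: growth inhibition of GOTO cells, read out by a cell viability assay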
# Description: SANGER: Inhibition of human GOTO cell growth in a cell viability assay.
# GR-ST = type: functional, cell-based, Homo sapiens; settings: Homo sapiens, GR-ST
# Description: SANGER: Inhibition of human GR-ST cell growth in a cell viability assay.
# HCE-T = type: functional, cell-based, Homo sapiens; settings: Homo sapiens, HCE-T;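 note: cell viability assay read-out, reporting inhibition of HCE-T cell growth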
# Description: SANGER: Inhibition of human HCE-T cell growth in a cell viability assay.
# IA-LM = type: functional, cell-based, Homo sapiens; settings: Homo sapiens, IA-LM;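 note: cell viability assay measuring growth inhibition of human IA-LM cells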
# Description: SANGER: Inhibition of human IA-LM cell growth in a cell viability assay.
# KARPAS-45 = type: functional, cell-based, Homo sapiens; settings: Homo sapiens, KARPAS-45;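 note: inhibition of cell line growth, read out through a viability assay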
# Description: SANGER: Inhibition of human KARPAS-45 cell growth in a cell viability assay.
# KG-1 = type: functional, cell-based, Homo sapiens; settings: Homo sapiens, KG-1;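 note: growth inhibition of KG-1 cells, read out by a cell viability assay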
# Description: SANGER: Inhibition of human KG-1 cell growth in a cell viability assay.
# KINGS-1 = type: functional, cell-based, Homo sapiens; settings: Homo sapiens, KINGS-1;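 note: cell viability assay measuring suppression of KINGS-1 cell growth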
# Description: SANGER: Inhibition of human KINGS-1 cell growth in a cell viability assay.
# KP-N-YS = type: functional, cell-based, Homo sapiens; settings: Homo sapiens, KP-N-YS;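 note: cell viability assay measuring inhibition of cell line growth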
# Description: SANGER: Inhibition of human KP-N-YS cell growth in a cell viability assay.
# L-428 = type: functional, cell-based, Homo sapiens; settings: Homo sapiens, L-428
# Description: SANGER: Inhibition of human L-428 cell growth in a cell viability assay.
# LAMA-84 = type: functional, cell-based, Homo sapiens; settings: Homo sapiens, LAMA-84;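 note: growth inhibition of LAMA-84 cells, read out with a cell viability assay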
# Description: SANGER: Inhibition of human LAMA-84 cell growth in a cell viability assay.
# LOX IMVI = type: functional, cell-based, Homo sapiens; settings: Homo sapiens, LOX IMVI
# Description: SANGER: Inhibition of human LOXIMVI cell growth in a cell viability assay.
# Lu-65 = type: functional, cell-based, Homo sapiens; settings: Homo sapiens, Lu-65;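 note: growth inhibition of Lu-65 cancer cells, read out by a cell viability assay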
# Description: SANGER: Inhibition of human LU-65 cell growth in a cell viability assay.
# MLMA = type: functional, cell-based, Homo sapiens; settings: Homo sapiens, MLMA;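 note: growth inhibition of MLMA cells (human), determined through a cell viability readout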
# Description: SANGER: Inhibition of human MLMA cell growth in a cell viability assay.
# MN-60 = type: functional, cell-based, Homo sapiens; settings: Homo sapiens, MN-60;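 note: growth inhibition of the MN-60 cell line, determined with a cell viability assay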
# Description: SANGER: Inhibition of human MN-60 cell growth in a cell viability assay.
# MZ1-PC = type: functional, cell-based, Homo sapiens; settings: Homo sapiens, MZ1-PC;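 note: cell viability assay measuring growth inhibition of human MZ1-PC cells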
# Description: SANGER: Inhibition of human MZ1-PC cell growth in a cell viability assay.
# NB13 = type: functional, cell-based, Homo sapiens; settings: Homo sapiens, NB13;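 note: cell viability readout measuring growth inhibition of human NB13 cells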
# Description: SANGER: Inhibition of human NB13 cell growth in a cell viability assay.
# NCI-H1650 = type: functional, cell-based, Homo sapiens; settings: Homo sapiens, NCI-H1650;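 note: growth inhibition of human NCI-H1650 cells measured by a cell viability assay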
# Description: SANGER: Inhibition of human NCI-H1650 cell growth in a cell viability assay.
# NCI-H209 = type: functional, cell-based, Homo sapiens; settings: Homo sapiens, NCI-H209;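 note: growth inhibition of human NCI-H209 cells, measured by a cell viability assay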
# Description: SANGER: Inhibition of human NCI-H209 cell growth in a cell viability assay.
# NCI-H510A = type: functional, cell-based, Homo sapiens; settings: Homo sapiens, NCI-H510A;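 note: growth inhibition of NCI-H510A cells, read out with a cell viability assay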
# Description: SANGER: Inhibition of human NCI-H510A cell growth in a cell viability assay.
# NCI-H82 = type: functional, cell-based, Homo sapiens; settings: Homo sapiens, NCI-H82;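 note: growth inhibition of NCI-H82 cells, measured with a cell viability readout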
# Description: SANGER: Inhibition of human NCI-H82 cell growth in a cell viability assay.
# NH-12 = type: functional, cell-based, Homo sapiens; settings: Homo sapiens, NH-12;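 note: growth inhibition of NH-12 cells, read out with a cell viability assay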
# Description: SANGER: Inhibition of human NH-12 cell growth in a cell viability assay.
# OCI-AML2 = type: functional, cell-based, Homo sapiens; settings: Homo sapiens, OCI-AML2;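 note: growth inhibition of OCI-AML2 cells, read out with a cell viability assay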
# Description: SANGER: Inhibition of human OCI-AML2 cell growth in a cell viability assay.
# OVCAR-4 = type: functional, cell-based, Homo sapiens; settings: Homo sapiens, OVCAR-4;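 note: growth inhibition of human OVCAR-4 cells, measured with a cell viability assay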
# Description: SANGER: Inhibition of human OVCAR-4 cell growth in a cell viability assay.
# QIMR-WIL = type: functional, cell-based, Homo sapiens; settings: Homo sapiens, QIMR-WIL;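 note: growth inhibition of QIMR-WIL cells, read out with a cell viability assay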
# Description: SANGER: Inhibition of human QIMR-WIL cell growth in a cell viability assay.
# Ramos-2G6-4C10 = type: functional, cell-based, Homo sapiens; settings: Homo sapiens, Ramos-2G6-4C10;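 note: growth inhibition of the cell line, measured by a cell viability read-out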
# Description: SANGER: Inhibition of human Ramos-2G6-4C10 cell growth in a cell viability assay.
# SBC-1 = type: functional, cell-based, Homo sapiens; settings: Homo sapiens, SBC-1;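 note: cell viability assay measuring growth inhibition of the SBC-1 cell line, IC50 being the concentration that halves growth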
# Description: SANGER: Inhibition of human SBC-1 cell growth in a cell viability assay.
# SF-539 = type: functional, cell-based, Homo sapiens; settings: Homo sapiens, SF-539;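 note: Read-out is a cell viability assay, with IC50 reflecting inhibition of cell growth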
# Description: SANGER: Inhibition of human SF539 cell growth in a cell viability assay.
# SHP77 = type: functional, cell-based, Homo sapiens, SHP-77; settings: Homo sapiens, SHP77;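 note: growth inhibition of human SHP-77 cells measured by a cell viability assay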
# Description: SANGER: Inhibition of human SHP-77 cell growth in a cell viability assay.
# SK-MEL-2 = type: functional, cell-based, Homo sapiens; settings: Homo sapiens, SK-MEL-2;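 note: growth inhibition of human SK-MEL-2 cells measured with a cell viability assay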
# Description: SANGER: Inhibition of human SK-MEL-2 cell growth in a cell viability assay.
# SK-NEP-1 = type: functional, cell-based, Homo sapiens; settings: Homo sapiens, SK-NEP-1;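 note: growth inhibition of human SK-NEP-1 cells, read out by a cell viability assay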
# Description: SANGER: Inhibition of human SK-NEP-1 cell growth in a cell viability assay.
# TE-1 = type: functional, cell-based, Homo sapiens; settings: Homo sapiens, TE-1;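 note: growth inhibition of the human TE-1 cell line, read out with a cell viability assay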
# Description: SANGER: Inhibition of human TE-1 cell growth in a cell viability assay.
# A3-KAW = type: functional, cell-based, Homo sapiens; settings: Homo sapiens, A3-KAW;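 note: growth inhibition of human A3-KAW cells, read out with a cell viability assay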
# Description: SANGER: Inhibition of human A3-KAW cell growth in a cell viability assay.
# A498 = type: functional, cell-based, Homo sapiens; settings: Homo sapiens, A498;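 note: growth inhibition of human A498 cells, read out with a cell viability assay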
# Description: SANGER: Inhibition of human A498 cell growth in a cell viability assay.
# BB30-HNC = type: functional, cell-based, Homo sapiens; settings: Homo sapiens, BB30-HNC;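 note: growth inhibition of the cultured cell line, read out by a cell viability assay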
# Description: SANGER: Inhibition of human BB30-HNC cell growth in a cell viability assay.
# TGBC1TKB = type: functional, cell-based, Homo sapiens; settings: Homo sapiens, TGBC1TKB;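 note: growth inhibition of TGBC1TKB cells, read out by a cell viability assay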
# Description: SANGER: Inhibition of human TGBC1TKB cell growth in a cell viability assay.
# U-266 = type: functional, cell-based, Homo sapiens; settings: Homo sapiens, U-266
# Description: SANGER: Inhibition of human U-266 cell growth in a cell viability assay.
# UACC-257 = type: functional, cell-based, Homo sapiens; settings: Homo sapiens, UACC-257
# Description: SANGER: Inhibition of human UACC-257 cell growth in a cell viability assay.
# no-10 = type: functional, cell-based, Homo sapiens; settings: Homo sapiens;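 note: growth inhibition of no-10 cells, read out with a cell viability assay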
# Description: SANGER: Inhibition of human no-10 cell growth in a cell viability assay.
structure (smiles),measurement,setting,value
COc1cc(-c2nn([C@H]3CC[C@H](N4CCN(C(C)=O)CC4)CC3)c3ncnc(N)c23)ccc1NC(=O)c1cc2ccccc2n1C,IC50,CW-2,> 5120 nM
same,IC50,DEL,> 5120 nM
same,IC50,DMS-114,> 5120 nM
same,IC50,DSH1,> 5120 nM
same,IC50,DU-4475,> 5120 nM
same,IC50,EW-1,> 5120 nM
same,IC50,EW-13,> 5120 nM
same,IC50,GB-1,678 nM
same,IC50,GCIY,4030 nM
same,IC50,GI-1,> 5120 nM
same,IC50,GOTO,> 5120 nM
same,IC50,GR-ST,> 5120 nM
same,IC50,HCE-T,> 5120 nM
same,IC50,IA-LM,> 5120 nM
same,IC50,KARPAS-45,> 5120 nM
same,IC50,KG-1,> 5120 nM
same,IC50,KINGS-1,> 5120 nM
same,IC50,KP-N-YS,> 5120 nM
same,IC50,L-428,> 5120 nM
same,IC50,LAMA-84,147 nM
same,IC50,LOX IMVI,> 5120 nM
same,IC50,Lu-65,> 5120 nM
same,IC50,MLMA,209 nM
same,IC50,MN-60,> 5120 nM
same,IC50,MZ1-PC,595 nM
same,IC50,NB13,> 5120 nM
same,IC50,NCI-H1650,> 5120 nM
same,IC50,NCI-H209,> 5120 nM
same,IC50,NCI-H510A,4760 nM
same,IC50,NCI-H82,> 5120 nM
same,IC50,NH-12,> 5120 nM
same,IC50,OCI-AML2,5100 nM
same,IC50,OVCAR-4,1040 nM
same,IC50,QIMR-WIL,2870 nM
same,IC50,Ramos-2G6-4C10,> 5120 nM
same,IC50,SBC-1,> 5120 nM
same,IC50,SF-539,> 5120 nM
same,IC50,SHP77,> 5120 nM
same,IC50,SK-MEL-2,> 5120 nM
same,IC50,SK-NEP-1,> 5120 nM
same,IC50,TE-1,2050 nM
same,IC50,A3-KAW,> 5120 nM
same,IC50,A498,> 5120 nM
same,IC50,BB30-HNC,874 nM
same,IC50,TGBC1TKB,3630 nM
same,IC50,U-266,> 5120 nM
same,IC50,UACC-257,> 5120 nM
same,IC50,no-10,2180 nM
OCCCNc1cc(-c2ccnc(Nc3cccc(Cl)c3)n2)ccn1,IC50,CW-2,> 256 nM
same,IC50,DEL,25.8 nM
same,IC50,DMS-114,> 256 nM
same,IC50,DSH1,> 256 nM
same,IC50,DU-4475,140 nM
same,IC50,EW-1,45.8 nM
same,IC50,EW-13,> 256 nM
same,IC50,GB-1,38 nM
same,IC50,GCIY,> 256 nM
same,IC50,GI-1,78.1 nM
same,IC50,GOTO,74.9 nM
same,IC50,GR-ST,174 nM
same,IC50,HCE-T,47.3 nM
same,IC50,IA-LM,93.2 nM
same,IC50,KARPAS-45,104 nM
same,IC50,KG-1,> 256 nM
same,IC50,KINGS-1,103 nM
same,IC50,KP-N-YS,> 256 nM
same,IC50,L-428,112 nM
same,IC50,LAMA-84,203 nM
same,IC50,LOX IMVI,202 nM
same,IC50,Lu-65,> 256 nM
same,IC50,MLMA,57.4 nM
same,IC50,MN-60,149 nM
same,IC50,MZ1-PC,42.7 nM
same,IC50,NB13,126 nM
same,IC50,NCI-H1650,> 256 nM
same,IC50,NCI-H209,135 nM
same,IC50,NCI-H510A,> 256 nM
same,IC50,NCI-H82,> 256 nM
same,IC50,NH-12,> 256 nM
same,IC50,OCI-AML2,62.6 nM
same,IC50,OVCAR-4,> 256 nM
same,IC50,QIMR-WIL,48.8 nM
same,IC50,Ramos-2G6-4C10,59.3 nM
same,IC50,SBC-1,> 256 nM
same,IC50,SF-539,> 256 nM
same,IC50,SHP77,155 nM
same,IC50,SK-MEL-2,> 256 nM
same,IC50,SK-NEP-1,80.9 nM
same,IC50,TE-1,> 256 nM
same,IC50,A3-KAW,19.9 nM
same,IC50,A498,> 256 nM
same,IC50,BB30-HNC,52.5 nM
same,IC50,TGBC1TKB,23.6 nM
same,IC50,U-266,> 256 nM
same,IC50,UACC-257,> 256 nM
same,IC50,no-10,14.8 nM
